Here are results for twelve molecules from BindingDB's records for doi:10.1021/jm0503087 (Conforma Therapeutics, 2006).

In this assay the target is Heat shock protein HSP 90-beta (Homo sapiens, UniProt P08238). Put plainly: Her-2 Degradation Assay. The settings on record: pH 7.2; 37 °C.
Sequence of Heat shock protein HSP 90-beta (P08238 whole entry): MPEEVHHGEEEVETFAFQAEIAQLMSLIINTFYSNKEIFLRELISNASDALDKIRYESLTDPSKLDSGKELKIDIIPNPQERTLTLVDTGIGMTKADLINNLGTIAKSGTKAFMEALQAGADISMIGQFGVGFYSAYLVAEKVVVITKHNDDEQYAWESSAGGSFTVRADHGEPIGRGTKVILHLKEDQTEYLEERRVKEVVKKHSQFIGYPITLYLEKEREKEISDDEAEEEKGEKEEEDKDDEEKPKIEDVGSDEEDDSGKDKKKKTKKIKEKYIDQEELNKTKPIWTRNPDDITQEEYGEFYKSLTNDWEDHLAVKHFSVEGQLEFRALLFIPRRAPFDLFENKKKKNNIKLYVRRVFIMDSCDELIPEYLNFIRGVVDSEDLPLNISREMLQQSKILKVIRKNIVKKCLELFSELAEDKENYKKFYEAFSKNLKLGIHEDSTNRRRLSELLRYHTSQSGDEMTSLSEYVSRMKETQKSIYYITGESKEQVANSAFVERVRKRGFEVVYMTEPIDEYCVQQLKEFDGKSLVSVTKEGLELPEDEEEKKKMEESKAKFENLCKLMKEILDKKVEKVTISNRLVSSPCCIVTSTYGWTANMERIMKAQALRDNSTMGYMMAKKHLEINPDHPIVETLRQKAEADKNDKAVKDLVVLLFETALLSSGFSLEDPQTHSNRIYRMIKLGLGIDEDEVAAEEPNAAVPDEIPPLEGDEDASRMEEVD

Protocol: A fluorescence histogram was generated, and the mean fluorescence intensity (MFI) of each sample was determined using Cellquest software.

`CCCCn1c(Cc2cc(OC)ccc2I)nc2c(N)ncnc21` [9-butyl-8-[(2-iodo-5-methoxyphenyl)methyl]-9H-purin-6-amine]: the midpoint of the response, the EC50, lay at 5000 nM.

The molecule `CCCCn1c(Cc2cc(OC)ccc2Cl)nc2c(N)ncnc21` [9-butyl-8-[(2-chloro-5-methoxyphenyl)methyl]-9H-purin-6-amine] had an EC50 of 20000 nM.

`COc1ccc(I)c(Sc2nc3c(N)ncnc3n2CCCNC(C)C)c1` [8-[(2-iodo-5-methoxyphenyl)sulfanyl]-9-[3-(propan-2-ylamino)propyl]-9H-purin-6-amine] had an EC50 of 180 nM.

For the molecule `CCC(CC)NCCCn1c(Sc2cc(OC)ccc2I)nc2c(N)ncnc21` [8-[(2-iodo-5-methoxyphenyl)sulfanyl]-9-[3-(pentan-3-ylamino)propyl]-9H-purin-6-amine], the response was half-maximal at 210 nM (EC50).

With `C#CCCCn1c(Sc2cc(OC)ccc2I)nc2c(N)nc(F)nc21` [2-fluoro-8-[(2-iodo-5-methoxyphenyl)sulfanyl]-9-(pent-4-yn-1-yl)-9H-purin-6-amine], the EC50 is 360 nM.

Molecule `CCCCn1c(Cc2cc(OC)ccc2OC)nc2c(N)ncnc21` [PU7] registered an EC50 of 12000 nM.

For the molecule `COc1ccc(I)c(Sc2nc3c(N)ncnc3n2CCC=C(C)C)c1` [8-[(2-iodo-5-methoxyphenyl)sulfanyl]-9-(4-methylpent-3-en-1-yl)-9H-purin-6-amine], the EC50 came to 370 nM.

`CCCCn1c(Cc2cc(OC)ccc2Br)nc2c(N)ncnc21` [8-[(2-bromo-5-methoxyphenyl)methyl]-9-butyl-9H-purin-6-amine]: it took 8000 nM to reach a half-maximal effect (EC50).

`COc1ccc(I)c(Sc2nc3c(N)ncnc3n2CCCNC(C)(C)C)c1` gave an EC50 of 140 nM.

On to `CCCCn1c(Sc2cc(OC)ccc2OC)nc2c(N)ncnc21` [9-butyl-8-[(2,5-dimethoxyphenyl)sulfanyl]-9H-purin-6-amine], for which a half-maximal response (EC50) required 3500 nM.

In turn, `CCC(C)NCCCn1c(Sc2cc(OC)ccc2I)nc2c(N)ncnc21` (configuration not stated) [9-[3-(butan-2-ylamino)propyl]-8-[(2-iodo-5-methoxyphenyl)sulfanyl]-9H-purin-6-amine] yielded an EC50 of 210 nM.

Take `COc1ccc(I)c(Sc2nc3c(N)ncnc3n2CCNCC(C)C)c1` [8-[(2-iodo-5-methoxyphenyl)sulfanyl]-9-{2-[(2-methylpropyl)amino]ethyl}-9H-purin-6-amine]: the response was half-maximal at 100 nM (EC50).
